What all share (type): cell-based
In assay [1] the target is T1, mouse Olfr73 (Mus musculus, UniProt Q920P2).
T1 sequence (Q920P2 1-313): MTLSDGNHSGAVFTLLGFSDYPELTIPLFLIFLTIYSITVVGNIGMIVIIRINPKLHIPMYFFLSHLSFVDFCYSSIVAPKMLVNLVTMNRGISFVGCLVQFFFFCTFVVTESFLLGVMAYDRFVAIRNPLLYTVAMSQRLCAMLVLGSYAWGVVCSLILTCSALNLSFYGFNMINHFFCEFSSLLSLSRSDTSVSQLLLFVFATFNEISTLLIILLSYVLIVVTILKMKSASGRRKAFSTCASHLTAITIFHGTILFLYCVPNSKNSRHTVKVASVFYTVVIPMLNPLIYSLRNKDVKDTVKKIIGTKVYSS
The assay can be described thus: GCaMP3 calcium imaging of mouse OSNs ectopically expressing Olfr73 (rAAV2/5), 5-s odorant pulse. To be noted: for Agonism/antagonism, OSN Ca2+ Mouse: strong agonist 100 µM, putative antagonist 1 mM, single or as pair; for Effect on the response to eugenol in a binary mix: eugenol 100 µM or 10 µM plus putative antagonist.

Assay [2] has as its target T1, mouse Olfr73. Put plainly: Calcium imaging of HEK293 cells expressing Olfr73 with Gs/olf, short 5-s odorant pulse. Conditions: for Effect on the response to eugenol or vanillin in a binary mix: agonist 100 µM, test ligand 1 mM; for Agonism/antagonism, HEK293 short odor Ca2+ Gs/olf: strong agonist 100 µM, putative antagonist 1 mM, single or as pair.
The target in assay [3] is T1, mouse Olfr73. The assay can be described thus: Calcium imaging of HEK293 cells expressing Olfr73 with Gα15, short 5-s odorant pulse. Conditions: for Response to ligand applied alone: HEK293, Gα15, 5-s pulse; for Effect on the response to eugenol in a binary mix: HEK293, Gα15, eugenol 100 µM; for Agonism/antagonism, HEK293 short odor Ca2+ G15: 5-s pulse, strong agonist 100 µM, putative antagonist 1 mM, single or as pair.

The target in assay [4] is T1, mouse Olfr73. Put plainly: cell-based. Conditions: for Response to ligand applied alone: HEK293, Gαq11/ß1/γ13, 5-s pulse; for Agonism/antagonism, HEK293 short odor Ca2+ Gq11: 5-s pulse, strong agonist 100 µM, putative antagonist 1 mM, single or as pair.
For assay [5], the target named is T1, mouse Olfr73. The assay can be described thus: GCaMP3 calcium imaging of rat OSNs ectopically expressing Olfr73 (rAAV2/5), 5-s odorant pulse.
For assay [6], the target named is T1, mouse Olfr73. Put plainly: Cre-SEAP cAMP reporter assay, HEK293 cells co-expressing untagged Olfr73 and Gs/olf, prolonged odorant. As to the method:
cAMP production was measured as previously described. HEK293T cells were co-transfected with a guanine nucleotide exchange factor Ric-8b (50 ng; a gift from Dr. Malnic, Universidade de São Paulo, Brazil), Gαolf (50 ng), RTP1s (100 ng) and untagged Olfr73 (1.5 μg). Cells were also transfected with 1.5 μg of a pCRE-SEAP, where the expression of the secreted alkaline phosphatase (SEAP) is under regulation of the cAMP responsive element. A plasmid pTAL-SEAP missing the Cre element was used as a negative control. Cells were also transfected with 50 ng of a pcDNA5/TO/LacZ (Invitrogen) for DNA concentration normalization. At 24 h post-transfection, the cells were re-seeded for SEAP analysis and odorants were added at the indicated dilutions at 48 h post-transfection. […] The supernatants were incubated for 30 min at 65 °C and then frozen until analysis. The cell pellets were washed with PBS and then lysed with reporter lysis buffer for β-galactosidase measurement following the manufacturer’s instructions (Promega). SEAP activity was measured by mixing 100 μl of supernatant with an equal amount of BluePhos substrate (KPL). Samples were monitored for color development at 630 nm in a microwell plate reader. SEAP activity was calculated by subtracting the responses of cells transfected in parallel with pTAL-SEAP and normalizing to β-gal activity. Average SEAP activity was determined after subtracting the response of cells not expressing an OR and is reported in arbitrary units ± standard deviation.
A general note: Reporter assays use an easily measured gene product as a stand-in for the process of interest.

Assay [7] addresses T1, mouse Olfr73. The assay can be described thus: cAMP-dependent Ca2+ influx (CNGCmut, GCaMP3) in HEK293 cells with untagged Olfr73 and Gs/olf, 10-min odorant. To be noted: for Response to ligand applied alone, prolonged: 10-min application; for Response to ligand applied alone, prolonged / Agonism/antagonism, HEK293 long odor Ca2+ Gs/olf: eugenol 100 µM, MIEG 1 mM; for Agonism/antagonism, HEK293 long odor Ca2+ Gs/olf: prolonged 10-min odorant application.

For assay [8], the target named is T1, mouse Olfr73. The assay can be described thus: GCaMP3 calcium imaging of HEK293T cells co-transfected with pTR-Olfr73-furin2A-GCaMP3 (untagged Olfr73) and Gα15, 5-s pulse. To be noted: for Response to ligand applied alone: HEK293T, untagged Olfr73, Gα15, 5-s pulse.
In assay [9] the target is Olfr599 (Mus musculus, UniProt Q8VG01). The assay can be described thus: GCaMP3 calcium imaging of mouse OSNs ectopically expressing Olfr599 (rAAV2/5). Conditions: each at 100 µM, 5-s pulse. As for the experimental part:
Animals 4–6 weeks of age were used for experiments 7–21 days post-inoculation with rAAV2/5 encoding OR-furin2A-GCaMP3. Calcium imaging was performed as detailed previously. Tissue was prepared and mounted with the apical surface facing up. The chamber was transferred to the stage of an upright microscope (Zeiss Axioskop-2F) equipped with a 40×/0.75NA long distance water-immersion objective lens. Experimental solutions were applied for a duration of 5 s directly to the field of view through a 100 µm diameter needle made of fused silica and connected to a 9-channel Teflon manifold. Solution application was controlled by electronic valves (VC-6, Warner Instruments). The calcium response is presented as an increase of GCaMP3 fluorescence originating from the knob and underlying dendrite. The tissue was illuminated using a standard eGFP filter cube BP490 nm/ 535 nm (Omega Optical, USA) and the emitted light was collected at 530 nm (BP 530/20 nm, Omega Optical, USA) by a 12-bit cooled CCD camera (ORCA R2, Hamamatsu, Japan). […] Before processing, fluorescence intensity was corrected for the background. Each knob was assigned a region of interest (ROI) and changes in fluorescence intensity within each ROI were analyzed and expressed as the peak fractional change in fluorescent light intensity (F-Fo)/Fo where Fo is the baseline fluorescence before application of experimental solutions.

The mark [10] stands for this setting: HEK293, vanillin 100 µM, MIEG 1 mM.

The term EC50 denotes the concentration needed to bring the measured effect to its halfway point.

“Also recorded” adds a separate entry of the source.

Olfr599, sequence (Q8VG01 entry or part of it): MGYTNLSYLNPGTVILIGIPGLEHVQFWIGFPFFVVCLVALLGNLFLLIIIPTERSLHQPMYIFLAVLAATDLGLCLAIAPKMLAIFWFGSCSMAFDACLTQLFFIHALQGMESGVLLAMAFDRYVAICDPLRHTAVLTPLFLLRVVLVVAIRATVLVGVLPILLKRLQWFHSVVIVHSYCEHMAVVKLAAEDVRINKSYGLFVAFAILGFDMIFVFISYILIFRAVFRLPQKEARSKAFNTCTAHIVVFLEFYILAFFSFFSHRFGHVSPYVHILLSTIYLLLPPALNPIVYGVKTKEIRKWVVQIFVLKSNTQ

Regarding `CCCCCOC(C)=O` [Amyl acetate, amyl acetate], in assay [1] (mouse Olfr73-OSNs, 5-s pulse), the “Response to ligand applied alone” value was “variable responses”.
For `C=C(C)C1CC=C(C)C(=O)C1` (stereo not drawn) [Carvone], the “Response to ligand applied alone” value is “did not activate any response” in [2] (HEK293, Gs/olf, 5-s pulse); “non-agonist” in [3]; “non-agonist” in assay [4]. The “Effect on the response to eugenol or vanillin in a binary mix” value in assay [2] (HEK293, Gs/olf) is reported as “no inhibiting effect”. Moreover, the “Effect on the response to eugenol in a binary mix” value is “incapable” in assay [3] and “no antagonism; also recorded: failed to antagonize” in assay [4] (HEK293, eugenol 100 µM, test ligand 1 mM, also with 30-s pre-incubation).
`C=CCc1ccc(O)c(OC)c1` [Eugenol, eugenol]: the 50% effective concentration (EC50) came to 4.8 ± 1.1 µM in assay [1]; 41 ± 12 µM in assay [5]; 205 ± 27 µM in [6] (HEK293 long odor, Cre/SEAP, Gs/olf, untagged Olfr73); 184 ± 62 µM in assay [4] (HEK293 short odor Ca2+, Gq11, response normalized to 5 mM eugenol). Besides, the “Response to ligand applied alone” value is on record as “strongly activated; also recorded: consistently evoked a response in all cells” in assay [1] (mouse Olfr73-OSNs, 5-s pulse); “consistently activated calcium release” in [4]; “robustly activated” in assay [8]; “robust elevation of intracellular calcium; also recorded: robust calcium signal” in assay [8] (listed as eugenol). Further, in assay [5] (from EC50 values), the “Sensitivity of rat versus mouse Olfr73-OSNs” value was “nearly tenfold less sensitive”. For the same compound, the “Response to ligand applied alone, prolonged” value in assay [7] is listed as “sustained cAMP-dependent calcium influx”. The “Agonism/antagonism, HEK293 long odor Ca2+ Gs/olf” value in assay [7] is “Agonist”. In [2] (5-s pulse), the “Agonism/antagonism, HEK293 short odor Ca2+ Gs/olf” value was “Agonist”. Moreover, the “Agonism/antagonism, HEK293 short odor Ca2+ G15” value in assay [3] is given as “Agonist”.
With `C/C=C/c1ccc2c(c1)OCO2` [Isosafrole], the “Agonism/antagonism, OSN Ca2+ Mouse” value in assay [1] (5-s pulse) was “Agonist”. In addition, the “Response relative to the response to eugenol” value in assay [1] (ligand 1 mM, 5-s pulse, Olfr73-OSNs) was determined as 25%. Moreover, the “Agonism/antagonism, HEK293 short odor Ca2+ Gs/olf” value in assay [2] (5-s pulse) was “Antagonist”. In assay [3], the “Agonism/antagonism, HEK293 short odor Ca2+ G15” value was “Antagonist”. Also, the “Agonism/antagonism, HEK293 short odor Ca2+ Gq11” value in [4] is reported as “Antagonist”.
Turning to `C/C=C/c1ccc(OC)c(OC)c1` [Methylisoeugenol, methylisoeugenol], the “Response to ligand applied alone” value in [1] (mouse Olfr73-OSNs, 5-s pulse) is recorded as “evoked a measurable response”; in [1] (mouse Olfr73-OSNs, 5-s pulse, listed as MIEG), “partial agonist”; in [1] (mouse Olfr73-OSNs, 5-s pulse, listed as methylisoeugenol), “also elicited a response”; in assay [8] (listed as MIEG) it was “did not evoke any response; also recorded: did not elicit any response”. In addition, in assay [1] (mouse Olfr73-OSNs, Ca2+ (GCaMP3), 5-s odorant pulse, read-out: EC50), the concentration for a half-maximal effect (EC50) was found to be 430 ± 130 µM. For the same compound, the “Effect on the response to eugenol in a binary mix” value in assay [1] (mouse Olfr73-OSNs, listed as MIEG) is “did not reduce the response; also recorded: not significantly changed”; in assay [8] (eugenol 100 µM, MIEG 1 mM, 5-s pulse) it was “reduced the response; also recorded: significantly diminished”. For the same compound, the “Agonism/antagonism, OSN Ca2+ Rat” value in assay [5] (5-s pulse, strong agonist 100 µM, putative antagonist 1 mM) is given as “Agonist”. Further, the “Agonism/antagonism, HEK293 long odor Cre/SEAP Gs/olf” value in assay [6] (prolonged 30-min odorant application) is “Agonist”. Besides, in [6] (prolonged application, 0 µM eugenol), the “Response to ligand applied alone, Cre-SEAP” value is reported as “generated cAMP”. The “Interaction with eugenol in a binary mix, Cre-SEAP” value in assay [6] (several concentrations of eugenol and MIEG, prolonged incubation) is given as “no antagonistic interaction”. Also, the “Response to ligand applied alone, prolonged” value in assay [7] was “more slowly developing cAMP-dependent calcium influx; also recorded: significantly smaller than eugenol”. The “Response to mixture with eugenol versus eugenol alone, prolonged” value in [7] (10 min, eugenol 100 µM and MIEG 1 mM) is recorded as “no significant difference”. Also, the “Agonism/antagonism, HEK293 long odor Ca2+ Gs/olf” value in [7] is “Agonist”. In addition, in assay [2] (5-s pulse), the “Agonism/antagonism, HEK293 short odor Ca2+ Gs/olf” value was “Antagonist”. Further, the “Effect on the response to eugenol or vanillin in a binary mix” value in assay [2] (HEK293, Gs/olf) was “antagonized”. Further, the “Agonism/antagonism, HEK293 short odor Ca2+ G15” value in assay [3] is given as “Antagonist”. In addition, in assay [3] (HEK293, Gα15, vanillin 100 µM, MIEG 1 mM), the “Effect on the response to vanillin, 30-sec pre-incubation” value was “complete inhibition”. Further, the “Agonism/antagonism, HEK293 short odor Ca2+ Gq11” value in [4] is on record as “Antagonist”. For the same compound, in assay [4] (setting [10]), the “Effect on the response to vanillin, 30-s pre-incubation” value is on record as “near complete inhibition; also recorded: almost completely blocked”. Further, the “Effect on the response to vanillin, co-application” value in assay [4] (setting [10]) is on record as “only partially inhibited”.
Regarding `COc1cc(C=O)ccc1O` [Vanillin, vanillin], the “Agonism/antagonism, HEK293 short odor Ca2+ Gs/olf” value in [2] (5-s pulse) is recorded as “Agonist”.
On to `CC(=O)c1ccccc1` [acetophenone], for which the “Response to ligand applied alone” value in assay [1] (mouse Olfr73-OSNs, 5-s pulse) was “variable responses”.
As for `C=CCc1cc(OC)c(O)c(-c2cc(CC=C)cc(OC)c2O)c1` [di-Eugenol], the “Agonism/antagonism, OSN Ca2+ Mouse” value in [1] (5-s pulse) was “Inactive”. Further, the “Response to ligand applied alone” value in [1] (mouse Olfr73-OSNs, 5-s pulse) is recorded as “failed to activate any response”; in [1] (mouse Olfr73-OSNs, 5-s pulse, listed as di-EG), “did not elicit any response”. Further, the “Agonism/antagonism, HEK293 short odor Ca2+ Gs/olf” value in [2] (5-s pulse) was “Antagonist”. Also, the “Agonism/antagonism, HEK293 short odor Ca2+ G15” value in [3] is recorded as “Antagonist”. Further, the “Agonism/antagonism, HEK293 short odor Ca2+ Gq11” value in [4] was “Antagonist”.
For the compound `CCC1c2cc(OC)c(O)cc2C(c2ccc(O)c(OC)c2)C1C` (stereo not drawn) [di-Isoeugenol], the “Agonism/antagonism, OSN Ca2+ Mouse” value in [1] (5-s pulse) was “Inactive”. Further, the “Response to ligand applied alone” value in assay [1] (mouse Olfr73-OSNs, 5-s pulse, listed as di-IEG) is reported as “did not elicit any response; also recorded: failed to activate any response”. Moreover, the “Effect on the response to eugenol in a binary mix” value in assay [1] (mouse Olfr73-OSNs, listed as di-IEG) is on record as “not able to antagonize; also recorded: additive increase”. Besides, in [2] (5-s pulse), the “Agonism/antagonism, HEK293 short odor Ca2+ Gs/olf” value is on record as “Antagonist”. Besides, in assay [3], the “Agonism/antagonism, HEK293 short odor Ca2+ G15” value was “Antagonist”; the “Response to ligand applied alone” value is given as “is not an agonist”; the “Effect on the response to eugenol in a binary mix” value is “antagonizes eugenol”. The “Agonism/antagonism, HEK293 short odor Ca2+ Gq11” value in assay [4] is recorded as “Antagonist”.
For the compound `CCCCCCCC=O` [octanal], in assay [9], the “Response to ligand applied alone” value is given as “evoked reliable neuronal responses”.

The record behind these values is article PMC8085013, “Mixture interactions at mammalian olfactory receptors are dependent on the cellular environment” (Scientific Reports, 2021).
